Each molecule was assayed on MDA-231 cancer cells (assay: Inhibition of proliferation assay: cell confluence (IncuCyte imaging)). Details: compound at 10 uM; MDA-231 cells; IncuCyte images every 3 h over 4-5 d; relative confluence normalised to time zero.
Format: cell-based
From the text: Inhibition of Proliferation Assay
The confluence value is a surrogate for cell proliferation and growth. The value is expressed as a percent confluence, which represents the fraction of culture dish-surface that is occupied by cells. As the number of cells in the dish increases over time due to proliferation, so will their coverage of that surface increase. Expansion of the cell population on the cell culture-dish surface and confluence have mostly a linear relationship until the cells on the plate surface begin to reach saturation or maximum density.
Confluence is determined based on image analysis. Image based software can identify objects in the image field base on changes to pixel density in a grey scale image. The software can then assign a mask to those pixels within the object. Objects can be ‘gated’ out based on size and shape. To determine cell confluence, images of cells are first masked as objects. The surface area of the image that is masked is measured and compared to the total surface area of the culture dish surface to obtain a percent confluence.
MDA-231 cancer cells were obtained from ATCC. Cells were cultured in Dulbecco's Modified Eagle Medium (DMEM) supplemented with 10% Fetal Bovine Serum (FBS), 2 mM Glutamax, 1 mM Non Essential Amino Acid (NEAA) solution and 1 mM sodium pyruvate. […] Final DMSO concentrations were […]. Images were acquired with an IncuCyte Live Cell Imaging microscopy (Essen Bioscience) at every 3 h under cell culture conditions with 10× objective over 4-5 d. Cell confluence was calculated from one field of view per well using the IncuCyte in-built algorithm. Relative confluence values were obtained by normalising each value to the time zero value in each sample.

Compared with `CC[C@H]1OC(=O)[C@H](C)[C@@H](O[C@H]2C[C@@](C)(OC)[C@@H](O)[C@H](C)O2)[C@H](C)[C@@H](O[C@@H]2O[C@H](C)C[C@H](N(C)C)[C@H]2OC(C)=O)[C@](C)(O)C[C@@H](C)CN(C)[C@H](C)[C@@H](OC(=O)NCCCCCCCCCC[P+](C)(C)c2ccccc2)[C@]1(C)O.[Br-]` [Example 38, (2S,3R,4S,6R)-2-{[(2R,3R,4R,5R,8R,10R,11R,12S,13S,14R)-4-[({10-[dimethyl(phenyl)phosphoniumyl]decyl}carbamoyl)oxy]-2-ethyl-3,10-dihydroxy-13-{[(2R,4R,5S,6S)-5-hydroxy-4-methoxy-4,6-dimethyloxan-2-yl]oxy}-3,5,6,8,10,12,14-heptamethyl-15-oxo-1-oxa-6-azacyclopentadecan-11-yl]oxy}-4-(dimethylamino)-6-methyloxan-3-yl acetate bromide], `CC[C@H]1OC(=O)[C@H](C)[C@@H](O[C@H]2C[C@@](C)(OC)[C@@H](O)[C@H](C)O2)[C@H](C)[C@@H](O[C@@H]2O[C@H](C)C[C@H](N(C)C)[C@H]2O)[C@](C)(O)C[C@@H](C)CN(C(=O)CCCCCCCCCCC[PH](C)(C)c2ccccc2)[C@H](C)[C@@H](O)[C@]1(C)O` [Example 23, {12-[(2R,3S,4R,5R,8R,10R,11R,12S,13S,14R)-11-{[(2S,3R,4S,6R)-4-(dimethylamino)-3-hydroxy-6-methyloxan-2-yl]oxy}-2-ethyl-3,4,10-trihydroxy-13-{[(2R,4R,5S,6S)-5-hydroxy-4-methoxy-4,6-dimethyloxan-2-yl]oxy}-3,5,8,10,12,14-hexamethyl-15-oxo-1-oxa-6-azacyclopentadecan-6-yl]-12-oxododecyl}dimethylphenylphosphonium chloride] is lower in “% Confluence” value: 135% for the first, 7.5% for the second.

First: CC[C@H]1OC(=O)[C@H](C)[C@@H](O[C@H]2C[C@@](C)(OC)[C@@H](O)[C@H](C)O2)[C@H](C)[C@@H](O[C@@H]2O[C@H](C)C[C@H](N(C)C)[C@H]2O)[C@](C)(O)C[C@@H](C)CN(C(=O)CCCCCCCCCCC[PH](c2ccccc2)(c2ccccc2)C(C)C)[C@H](C)[C@@H](O)[C@]1(C)O [Example 33, {12-[(2R,3S,4R,5R,8R,10R,11R,12S,13S,14R)-11-{[(2S,3R,4S,6R)-4-(dimethylamino)-3-hydroxy-6-methyloxan-2-yl]oxy}-2-ethyl-3,4,10-trihydroxy-13-{[(2R,4R,5S,6S)-5-hydroxy-4-methoxy-4,6-dimethyloxan-2-yl]oxy}-3,5,8,10,12,14-hexamethyl-15-oxo-1-oxa-6-azacyclopentadecan-6-yl]-12-oxododecyl}diphenyl(propan-2-yl)phosphonium chloride]
Second: CC[C@H]1OC(=O)[C@H](C)[C@@H](O[C@H]2C[C@@](C)(OC)[C@@H](O)[C@H](C)O2)[C@H](C)[C@@H](O[C@@H]2O[C@H](C)C[C@H](N(C)C)[C@H]2O)[C@](C)(O)C[C@@H](C)CN(C(=O)CCCCCCCCCCC[P+](C)(c2ccccc2)c2ccccc2)[C@H](C)[C@@H](O)[C@]1(C)O.[Cl-] [Example 22, {12-[(2R,3S,4R,5R,8R,10R,11R,12S,13S,14R)-11-{[(2S,3R,4S,6R)-4-(dimethylamino)-3-hydroxy-6-methyloxan-2-yl]oxy}-2-ethyl-3,4,10-trihydroxy-13-{[(2R,4R,5S,6S)-5-hydroxy-4-methoxy-4,6-dimethyloxan-2-yl]oxy}-3,5,8,10,12,14-hexamethyl-15-oxo-1-oxa-6-azacyclopentadecan-6-yl]-12-oxododecyl}(methyl)diphenylphosphonium chloride]
The “% Confluence” value of the first is lower: 5.6% for the first, 137% for the second.

First: CC[C@H]1OC(=O)[C@H](C)[C@@H](O[C@H]2C[C@@](C)(OC)[C@@H](O)[C@H](C)O2)[C@H](C)[C@@H](O[C@@H]2O[C@H](C)C[C@H](N(C)C)[C@H]2O)[C@](C)(O)C[C@@H](C)CN(C(=O)CCCCCCC[P+](C2CCCCC2)(C2CCCCC2)C2CCCCC2)[C@H](C)[C@@H](O)[C@]1(C)O [Example 7, tricyclohexyl({8-[(2R,3S,4R,5R,8R,10R,11R,12S,13S,14R)-11-{[(2S,3R,4S,6R)-4-(dimethylamino)-3-hydroxy-6-methyloxan-2-yl]oxy}-2-ethyl-3,4,10-trihydroxy-13-{[(2R,4R,5S,6S)-5-hydroxy-4-methoxy-4,6-dimethyloxan-2-yl]oxy}-3,5,8,10,12,14-hexamethyl-15-oxo-1-oxa-6-azacyclopentadecan-6-yl]-8-oxooctyl})phosphonium hexafluorophosphate(V)]
Second: CC[C@H]1OC(=O)[C@H](C)[C@@H](O[C@H]2C[C@@](C)(OC)[C@@H](O)[C@H](C)O2)[C@H](C)[C@@H](O[C@@H]2O[C@H](C)C[C@H](N(C)C)[C@H]2O)[C@](C)(O)C[C@@H](C)CN(C(=O)CCCCCCCCCCC[P+](C)(C)C)[C@H](C)[C@@H](O)[C@]1(C)O.[Cl-] [Example 24, {12-[(2R,3S,4R,5R,8R,10R,11R,12S,13S,14R)-11-{[(2S,3R,4S,6R)-4-(dimethylamino)-3-hydroxy-6-methyloxan-2-yl]oxy}-2-ethyl-3,4,10-trihydroxy-13-{[(2R,4R,5S,6S)-5-hydroxy-4-methoxy-4,6-dimethyloxan-2-yl]oxy}-3,5,8,10,12,14-hexamethyl-15-oxo-1-oxa-6-azacyclopentadecan-6-yl]-12-oxododecyl}trimethylphosphonium chloride]
The “% Confluence” value of the first is lower: 75.3% for the first, 140% for the second.

Going from `CC[C@H]1OC(=O)[C@H](C)[C@@H](O[C@H]2C[C@@](C)(OC)[C@@H](O)[C@H](C)O2)[C@H](C)[C@@H](O[C@@H]2O[C@H](C)C[C@H](N(C)C)[C@H]2O)[C@](C)(O)C[C@@H](C)CN(CCCCCCCC[P+](c2ccccc2)(c2ccccc2)c2ccc(N(C)C)cc2)[C@H](C)[C@@H](O)[C@]1(C)O.[I-]` [Example 12] to `CC[C@H]1OC(=O)[C@H](C)[C@@H](O[C@H]2C[C@@](C)(OC)[C@@H](O)[C@H](C)O2)[C@H](C)[C@@H](O[C@@H]2O[C@H](C)C[C@H](N(C)C)[C@H]2O)[C@](C)(O)C[C@@H](C)CN(C(=O)CCCCCCC[P+](c2ccccc2)(c2ccccc2)c2ccccc2CN(C)C)[C@H](C)[C@@H](O)[C@]1(C)O` [Example 17, {8-[(2R,3S,4R,5R,8R,10R,11R,12S,13S,14R)-11-{[(2S,3R,4S,6R)-4-(dimethylamino)-3-hydroxy-6-methyloxan-2-yl]oxy}-2-ethyl-3,4,10-trihydroxy-13-{[(2R,4R,5S,6S)-5-hydroxy-4-methoxy-4,6-dimethyloxan-2-yl]oxy}-3,5,8,10,12,14-hexamethyl-15-oxo-1-oxa-6-azacyclopentadecan-6-yl]-8-oxooctyl}({2-[(dimethylamino)methyl]phenyl})diphenylphosphonium hexafluorophosphate(V)], the “% Confluence” value rises from 4.1% to 93.1%.

First: CC[C@H]1OC(=O)[C@H](C)[C@@H](O[C@H]2C[C@@](C)(OC)[C@@H](O)[C@H](C)O2)[C@H](C)[C@@H](O[C@@H]2O[C@H](C)C[C@H](N(C)C)[C@H]2O)[C@](C)(O)C[C@@H](C)CN(C(=O)CCCCCCC[P+](c2ccccc2)(c2ccccc2)c2cnn(C)c2)[C@H](C)[C@@H](O)[C@]1(C)O.[Cl-] [Example 27, {8-[(2R,3S,4R,5R,8R,10R,11R,12S,13S,14R)-11-{[(2S,3R,4S,6R)-4-(dimethylamino)-3-hydroxy-6-methyloxan-2-yl]oxy}-2-ethyl-3,4,10-trihydroxy-13-{[(2R,4R,5S,6S)-5-hydroxy-4-methoxy-4,6-dimethyloxan-2-yl]oxy}-3,5,8,10,12,14-hexamethyl-15-oxo-1-oxa-6-azacyclopentadecan-6-yl]-8-oxooctyl}(1-methyl-1H-pyrazol-4-yl)diphenylphosphonium chloride]
Second: CC[C@H]1OC(=O)[C@H](C)[C@@H](O[C@H]2C[C@@](C)(OC)[C@@H](O)[C@H](C)O2)[C@H](C)[C@@H](O[C@@H]2O[C@H](C)C[C@H](N(C)C)[C@H]2O)[C@](C)(O)C[C@@H](C)CN(C(=O)CCCCCCC[P+](c2ccccc2)(c2ccccc2)c2ccccn2)[C@H](C)[C@@H](O)[C@]1(C)O [Example 8, {8-[(2R,3S,4R,5R,8R,10R,11R,12S,13S,14R)-11-{[(2S,3R,4S,6R)-4-(dimethylamino)-3-hydroxy-6-methyloxan-2-yl]oxy}-2-ethyl-3,4,10-trihydroxy-13-{[(2R,4R,5S,6S)-5-hydroxy-4-methoxy-4,6-dimethyloxan-2-yl]oxy}-3,5,8,10,12,14-hexamethyl-15-oxo-1-oxa-6-azacyclopentadecan-6-yl]-8-oxooctyl}diphenyl(pyridine-2-yl)phosphonium hexafluorophosphate(V)]
The “% Confluence” value of the first is higher: 123% for the first, 83% for the second.

Compared with `CC[C@H]1OC(=O)[C@H](C)[C@@H](O[C@H]2C[C@@](C)(OC)[C@@H](O)[C@H](C)O2)[C@H](C)[C@@H](O[C@@H]2O[C@H](C)C[C@H](N(C)C)[C@H]2O)[C@](C)(O)C[C@@H](C)CN(CCCCCCCCCC[P+](c2ccc(OC)cc2)(c2ccc(OC)cc2)c2ccc(OC)cc2)[C@H](C)[C@@H](O)[C@]1(C)O.[I-]` [Example 15], `CC[C@H]1OC(=O)[C@H](C)[C@@H](O[C@H]2C[C@@](C)(OC)[C@@H](O)[C@H](C)O2)[C@H](C)[C@@H](O[C@@H]2O[C@H](C)C[C@H](N(C)C)[C@H]2O)[C@](C)(O)C[C@@H](C)CN(CCCCCCCC[P+](c2ccc(OC)cc2)(c2ccc(OC)cc2)c2ccc(OC)cc2)[C@H](C)[C@@H](O)[C@]1(C)O.[I-]` [Example 13] is lower in “% Confluence” value: 16.6% for the first, 4.8% for the second.
